Data on eight molecules can be found in ChEMBL document CHEMBL1201862, “PubChem BioAssay data set” (2004).

Test systems include 786-0; A549; DU-145; EKVX; HOP-62; HT-29; Hs-578T; M14; MDA-N; OVCAR-8; PC-3; SF-268; SK-MEL-5; SK-OV-3; SNB-19; SNB-75; UACC-62; UO-31; OVCAR-3; SF-539.
Experiment in all cases: NCI anticancer screen, dose series, 48 h

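Protocol summary: plate cells (96-well), add compound at 5 concentrations, incubate 48 h, interpolate endpoints linearly. GI50 is the concentration that inhibits growth by half.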 Active and inactive are the calls of the source. Rule as the data show it: active = GI50 up to about 1.1 µM and inactive = higher. Residues, ends and D or L forms follow the SMILES beside them. *: point of attachment. Boc = CC(C)(C)OC(=O)*

On to `N=C/N=C/C(=S)O[C@@H]1C(=O)N2CCC[C@@]23CCCC[C@@H]13`, for which the GI50 in the experiment on 786-0, in the experiment with A549, in the experiment on DU-145, in the experiment on EKVX, in the experiment with HOP-62 and in the experiment on HT-29 was > 12.5 µM (inactive) throughout. Also, the GI50 with Hs-578T, in the experiment with M14, in the experiment on MDA-N, in the experiment with OVCAR-8, with PC-3 and in the experiment on SF-268 was > 12.5 µM (inactive) each time. The GI50 with SK-MEL-5, with SK-OV-3, in the experiment on SNB-19, in the experiment on SNB-75, in the experiment on UACC-62 and in the experiment on UO-31 was > 12.5 µM (inactive) in each case.
On to `COC(=O)[C@@H]1N2C(=S)N(c3ccccc3)C(=O)[C@H]2SC1(C)C`, for which the GI50 in the experiment on 786-0, with A549, in the experiment with DU-145, with EKVX, with HOP-62 and in the experiment with HT-29 was > 100 µM (inactive) each time. Besides, the GI50 in the experiment with M14, in the experiment with MDA-N, in the experiment on OVCAR-3, with OVCAR-8, with PC-3 and with SF-268 was > 100 µM (inactive) each time. In addition, the GI50 in the experiment with SF-539, in the experiment with SK-MEL-5, in the experiment with SK-OV-3, in the experiment on SNB-19, with SNB-75 and with UACC-62 was > 100 µM (inactive) throughout. The GI50 with UO-31 is > 100 µM (inactive).
As to `CN(C)c1ccc(C=C2C(=O)N(c3ccccc3)N(c3ccccc3)C2=O)cc1`, the GI50 in the experiment with 786-0 is 71.1 µM (inactive); with A549 it was 78.9 µM (inactive); in the experiment on DU-145, > 100 µM (inactive); in the experiment with EKVX, > 100 µM (inactive); in the experiment with HOP-62, > 100 µM (inactive); with HT-29, 72.8 µM (inactive). The GI50 with Hs-578T was 60.8 µM (inactive); in the experiment with M14, > 100 µM (inactive); in the experiment with MDA-N it was > 100 µM (inactive); in the experiment on OVCAR-3, > 100 µM (inactive); with OVCAR-8 it was 56.5 µM (inactive); with PC-3 it was 78 µM (inactive). Moreover, the GI50 in the experiment on SF-268 was > 100 µM (inactive); in the experiment on SK-MEL-5, > 100 µM (inactive); in the experiment on SK-OV-3 it was > 100 µM (inactive); in the experiment with SNB-19, 74.3 µM (inactive); in the experiment with SNB-75, 53.7 µM (inactive); in the experiment with UACC-62, > 100 µM (inactive). Moreover, in the experiment on UO-31, the GI50 was > 100 µM (inactive).
For `CC(C)(C)OC(=O)NC(Cc1ccc(O)cc1)C(=O)NC(CCCCN)C(=O)O` (stereo not drawn) (Boc-Tyr-Lys-OH; configuration not given here), the GI50 with 786-0 is 28.4 µM (inactive); in the experiment with A549, 40.4 µM (inactive); in the experiment on DU-145, 27 µM (inactive); in the experiment on HOP-62 it was 20.6 µM (inactive); with HT-29, 47.4 µM (inactive); in the experiment on M14, 17.4 µM (inactive). Further, the GI50 in the experiment on MDA-N was 32.6 µM (inactive); in the experiment with OVCAR-3, 28.4 µM (inactive); with OVCAR-8 it was 35.2 µM (inactive); in the experiment on PC-3, 44.9 µM (inactive); in the experiment on SF-268 it was 34.6 µM (inactive); in the experiment with SK-MEL-5, 28.1 µM (inactive). The GI50 is 22 µM (inactive) in the experiment on SNB-19, 31.6 µM (inactive) with SNB-75, 16.5 µM (inactive) in the experiment with UACC-62 and 19.7 µM (inactive) in the experiment with UO-31.
On to `Cc1cn(C2CC(COCc3ccccc3)N(CCO[Si](C)(C)C(C)(C)C)O2)c(=O)[nH]c1=O` (centres undefined), for which the GI50 in the experiment with 786-0 was 27.9 µM (inactive); with A549, 15.1 µM (inactive); in the experiment with DU-145 it was 15.8 µM (inactive); in the experiment on HOP-62, 17.3 µM (inactive); in the experiment on HT-29, 15.4 µM (inactive); with M14 it was 15 µM (inactive). For the same molecule, the GI50 in the experiment on MDA-N is 14.6 µM (inactive); in the experiment on OVCAR-3, 15 µM (inactive); in the experiment on OVCAR-8 it was 15.5 µM (inactive); in the experiment with PC-3, 5.28 µM (inactive); with SF-268 it was 21.3 µM (inactive); in the experiment with SF-539, 19.1 µM (inactive). In addition, the GI50 with SK-MEL-5 was 2.88 µM (inactive); in the experiment with SK-OV-3, 17.6 µM (inactive); in the experiment with SNB-19, 13.6 µM (inactive); with UACC-62, 11.9 µM (inactive); in the experiment on UO-31, 13.8 µM (inactive).
Regarding `O=C(O)CCC(C(=O)O)N1C(=O)c2ccccc2C1=O` (centres undefined), the GI50 in the experiment with 786-0, in the experiment with A549, in the experiment with DU-145, in the experiment on EKVX, with HOP-62 and in the experiment on HT-29 was > 100 µM (inactive) in each case. For the same molecule, the GI50 in the experiment on Hs-578T, in the experiment on M14, in the experiment with MDA-N, in the experiment with OVCAR-3, with OVCAR-8 and with PC-3 was > 100 µM (inactive) in each case. Besides, the GI50 with SF-268, in the experiment on SK-MEL-5, in the experiment on SK-OV-3, in the experiment on SNB-19, in the experiment with SNB-75 and in the experiment on UACC-62 was > 100 µM (inactive) in each case. The GI50 with UO-31 was > 100 µM (inactive).
`COC(=O)c1cccc(C)c1C1CN=NC12Cc1c(ccc(C)c1C)C2=O` (centres undefined): the GI50 was 46.2 µM (inactive) in the experiment with 786-0; 40.6 µM (inactive) in the experiment with A549; 64.1 µM (inactive) in the experiment with DU-145; 7.14 µM (inactive) in the experiment with EKVX; 51.6 µM (inactive) in the experiment on HOP-62; 25.8 µM (inactive) with HT-29. The GI50 in the experiment with Hs-578T is 27.4 µM (inactive); in the experiment on M14, 45.3 µM (inactive); in the experiment with MDA-N it was 33.1 µM (inactive); with OVCAR-3, 42.2 µM (inactive); with OVCAR-8, 30.7 µM (inactive); in the experiment on SF-268 it was 61.8 µM (inactive). Further, the GI50 in the experiment with SF-539 was > 100 µM (inactive); with SK-MEL-5 it was 0.102 µM (active); in the experiment with SNB-19 it was 55 µM (inactive); in the experiment on SNB-75, 51.5 µM (inactive); with UO-31 it was > 100 µM (inactive).
Consider `Cc1nnc([C@@]2(C)CC[C@H]3[C@@H](CCC4=CC(=O)CC[C@@]43C)[C@@H]2CC#N)o1`, for which the GI50 with 786-0, with A549, with EKVX, with HOP-62, in the experiment on HT-29 and in the experiment with Hs-578T was > 100 µM (inactive) each time. Further, the GI50 with M14, in the experiment with MDA-N, with OVCAR-3, with OVCAR-8, in the experiment on PC-3 and with SF-268 was > 100 µM (inactive) each time. Further, the GI50 in the experiment on SF-539 was > 100 µM (inactive); in the experiment on SK-MEL-5, > 100 µM (inactive); with SK-OV-3, > 100 µM (inactive); in the experiment on SNB-19, > 100 µM (inactive); with SNB-75, 41 µM (inactive); with UACC-62 it was > 100 µM (inactive). In addition, the GI50 with UO-31 was > 100 µM (inactive).
